Data as given in PMC9246096, “Structure-activity relationship studies for inhibitors for vancomycin-resistant Enterococcus and human carbonic anhydrases” (Journal of Enzyme Inhibition and Medicinal Chemistry, 2022).
pKi: −log10 of the molar value. Values after ≈ are worked out from the molar mass of the structure shown. Values joined by “and” are separate entries in the source; they are usually repeats but may differ in a detail not shown here. Identical values can stand only once. Like-named read-outs stand apart in the source and are kept apart here.

How the values were obtained:
E. faecium γ-CA (Efγ-CA) = E. faecium γ-CA (Efγ-CA) (Enterococcus faecium, UniProt Q3XX77); test: biochemical; format: biochemical
Method: (§1) Both Efα-CA and Efγ-CA were recombinantly expressed and purified as follows. A pHis2 plasmid (GenScript) containing either the Efα-CA sequence or Efγ-CA sequence was used for the expression of hexa-histidine tagged protein in a bacterial culture. […] Starter cultures were grown at 37 °C with shaking at 225 rpm overnight. One litre of autoclaved Luria-Bertani broth containing 100 µg/mL ampicillin and 1 mM ZiCl2 was inoculated with a 10-ml aliquot of the starter culture and grown at 37 °C with shaking at 225 rpm to an OD of 0.8 before being cold shocked and induced with 500 µL of IPTG (1 M). The induced cultures were grown for 16 h at 17 °C with shaking at 225 rpm. Bacterial cell pellets were spun down at 4000 g for 20 min and resuspended in 1× PBS containing 0.5 mM TCEP, 5% glycerol, pH = 7.4 to which 5 mg lysozyme was added to aid in lysis. The resuspended bacterial cells were incubated on ice for 20 min and then lysed via sonication. Lysed bacterial cells were pelleted by centrifugation at 14,000 g for 1 h to remove cellular debris, and the supernatant was loaded onto a nickel-NTA column equilibrated with 1x PBS containing 0.5 mM TCEP, 5% glycerol, pH = 7.4. Once flowthrough was collected, the protein was eluted using a 0–500 mM imidazole stepwise gradient in the same equilibration buffer, and fractions were collected. Fractions that contained the desired protein, as determined by SDS-PAGE, were combined and subjected to TEV protease for His-tag cleavage. After the addition of TEV, the protein was dialysed for 4 h against 1× PBS containing 0.5 mM TCEP, 5% glycerol, pH = 7.4. The dialysed protein solution was loaded back onto a nickel-NTA column equilibrated with 1x PBS containing 0.5 mM TCEP, 5% glycerol, pH = 7.4 for the subtraction of TEV followed by its elution with the same buffer containing 500 mM imidazole. The protein eluted prior to the imidazole was concentrated using Amicon Ultra Centrifugal Filters and purified by size-exclusion chromatography (SEC) on an S100 column using running buffer 1x PBS containing 0.5 mM TCEP, 5% glycerol, pH = 7.4. Fractions that contained the protein of interest as confirmed by SDS-PAGE were concentrated, flash frozen, and placed in −80 °C for future use.
(§2) The assay was performed according to previously published protocols. Recombinant Efα-CA and Efγ-CA was obtained as described above and hCA I and hCA II were purchased from Millipore Sigma (hCA I Catalog# C4396-5MG; hCA II Catalog #C6624-500UG). Ki values were determined from inputting the IC50 values into the Cheng–Prusoff equation[25] for Ki from catalytic inhibition constants.

E. faecium α-CA (Efα-CA) = E. faecium α-CA (Efα-CA) (Enterococcus faecium, UniProt Q3XYE8); format: biochemical
Method: as §1, §2

human CA I (hCAI) = biological target: human CA I (hCAI); parameters: method as in PMID 24316122; conditions: previously reported; read-out: Ki hCA I; cited from earlier work
human CA II (hCAII) = biological target: human CA II (hCAII); parameters: method as in PMID 24316122; conditions: previously reported; read-out: Ki hCA II; cited from earlier work
VRE strains = conditions: full data set published by Kaur et al.; cited from earlier work
[1] = Ki Efγ-CA, recombinant Efγ-CA, Ki from IC50 via Cheng–Prusoff
[2] = read-out: Ki Efα-CA; recombinant Efα-CA; Ki from IC50 via Cheng–Prusoff
[3] = recombinant Efγ-CA, Ki from IC50 via Cheng–Prusoff, read-out: Ki Efγ-CA
[4] = recombinant Efα-CA; Ki from IC50 via Cheng–Prusoff; read-out: Ki Efα-CA

E. faecium γ-CA (Efγ-CA), sequence (Q3XX77 entry or part of it): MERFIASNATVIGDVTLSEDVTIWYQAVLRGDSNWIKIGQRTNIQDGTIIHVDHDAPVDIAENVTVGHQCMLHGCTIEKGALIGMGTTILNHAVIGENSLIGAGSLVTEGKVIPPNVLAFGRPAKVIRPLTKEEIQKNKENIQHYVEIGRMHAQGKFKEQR
E. faecium α-CA (Efα-CA), sequence (Q3XYE8 entry or part of it): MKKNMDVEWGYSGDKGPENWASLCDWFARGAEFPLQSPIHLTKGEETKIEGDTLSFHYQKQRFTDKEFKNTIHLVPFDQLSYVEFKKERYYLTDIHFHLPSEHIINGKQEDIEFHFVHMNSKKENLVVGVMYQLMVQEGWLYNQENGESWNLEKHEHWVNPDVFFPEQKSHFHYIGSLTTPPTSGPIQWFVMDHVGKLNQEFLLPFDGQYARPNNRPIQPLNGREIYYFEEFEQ

Row | pKi (E. faecium γ-CA (Efγ-CA); [3]) | pKi (E. faecium α-CA (Efα-CA); [4]) | Compound | pKi (E. faecium γ-CA (Efγ-CA); [1]) | pKi (E. faecium α-CA (Efα-CA); [2]) | pKi (human CA I (hCAI)) | pKi (human CA II (hCAII)) | other results
1 | – | – | CCC(=O)Nc1nnc(S(N)(=O)=O)s1 [Cmpd 1] | 6.60 | 7.43 | – | – | –
2 | – | – | CC(C)C(=O)Nc1nnc(S(N)(=O)=O)s1 [Cmpd 2] | 6.66 | 7.63 | 6.75 | – | –
3 | – | – | CC(C)(C)C(=O)Nc1nnc(S(N)(=O)=O)s1 [Cmpd 3] | 6.36 | 7.53 | 6.78 | – | –
4 | – | – | CCCC(=O)Nc1nnc(S(N)(=O)=O)s1 [Cmpd 4] | 6.49 | 7.30 | – | – | –
5 | 6.55 | 7.20 | CC(C)CC(=O)Nc1nnc(S(N)(=O)=O)s1 [Cmpd 5] | – | – | 6.67 | 7.25 | –
6 | 6.41 | 7.16 | CC(C)(C)CC(=O)Nc1nnc(S(N)(=O)=O)s1 [Cmpd 6] | – | – | 6.64 | 8.14 | MIC (VRE strains): 0.015 µg/mL (≈ 0.0539 µM)
7 | 6.20 | 7.10 | CCCCCCC(=O)Nc1nnc(S(N)(=O)=O)s1 [Cmpd 7] | – | – | 6.48 | 7.64 | MIC (VRE strains): 0.015 µg/mL (≈ 0.0513 µM)
8 | 6.72 | 7.44 | NS(=O)(=O)c1nnc(NC(=O)C2CC2)s1 [Cmpd 8] | – | – | 6.80 | 7.61 | –
9 | 6.54 | 7.57 | NS(=O)(=O)c1nnc(NC(=O)C2CCC2)s1 [Cmpd 9] | – | – | 6.90 | 7.38 | –
10 | 6.71 | 8.01 | NS(=O)(=O)c1nnc(NC(=O)C2CCCC2)s1 [Cmpd 10] | – | – | 7.12 | 7.58 | –
11 | – | – | NS(=O)(=O)c1nnc(NC(=O)C2CCCCC2)s1 [Cmpd 11] | 6.88 | 7.31 | 7.20 | – | –
12 | 6.62 | 7.35 | CC1(C(=O)Nc2nnc(S(N)(=O)=O)s2)CCCCC1 [Cmpd 12] | – | – | 6.93 | 7.32 | –
13 | 6.46 | 7.53 | CC1CCC(C(=O)Nc2nnc(S(N)(=O)=O)s2)CC1 (stereo not shown) [Cmpd 13] | – | – | 6.82 | 7.59 | –
14 | – | – | NS(=O)(=O)c1nnc(NC(=O)c2ccccc2)s1 [Cmpd 14] | 7.02 | – | 6.96 | – | –
15 | 6.51 | 7.93 | NS(=O)(=O)c1nnc(NC(=O)CC2CC2)s1 [Cmpd 15] | – | – | 6.43 | 8.12 | –
16 | 6.39 | 7.74 | NS(=O)(=O)c1nnc(NC(=O)CC2CCC2)s1 [Cmpd 16] | – | – | 7.11 | 8.31 | –
17 | – | – | NS(=O)(=O)c1nnc(NC(=O)CC2CCCCC2)s1 [Cmpd 18] | 6.52 | 7.84 | 7.23 | – | –
18 | 6.61 | 7.41 | NS(=O)(=O)c1nnc(NC(=O)CCC2CCCC2)s1 [Cmpd 19] | – | – | 6.72 | 7.99 | –
19 | – | – | NS(=O)(=O)c1nnc(NC(=O)CCC2CCCCC2)s1 [Cmpd 20] | 6.46 | – | 6.02 | – | MIC (VRE strains): 0.007 µg/mL (≈ 0.022 µM)
20 | – | – | NS(=O)(=O)c1nnc(NC(=O)CCc2ccccc2)s1 [Cmpd 21] | – | – | 6.07 | – | –
21 | 7.03 | 7.42 | NS(=O)(=O)c1nnc(NC(=O)CN2CCCC2)s1 [Cmpd 22] | – | – | 7.19 | 7.24 | –
22 | 6.96 | 7.53 | NS(=O)(=O)c1nnc(NC(=O)CN2CCCCC2)s1 [Cmpd 23] | – | – | 7.27 | 7.68 | –
23 | – | – | NS(=O)(=O)c1nnc(NC(=O)CN2CCOCC2)s1 [Cmpd 24] | 7.25 | – | – | – | –
24 | – | – | CN1CCN(CC(=O)Nc2nnc(S(N)(=O)=O)s2)CC1 [Cmpd 25] | 7.19 | 7.09 | – | – | –
25 | – | – | CCNc1nnc(S(N)(=O)=O)s1 [Cmpd 26] | 6.30 | 6.78 | 6.15 | – | –
26 | – | – | NS(=O)(=O)c1nnc(NCC2CCCCC2)s1 [Cmpd 27] | 6.40 | 6.93 | 5.95 | – | –
27 | 6.55 | 6.79 | NS(=O)(=O)c1nnc(NCc2ccccc2)s1 [Cmpd 28] | – | – | 5.79 | – | –
28 | – | – | CC(=O)Nc1ccc(S(N)(=O)=O)cc1 [Cmpd 30] | – | – | 5.88 | 7.17 | pKi (E. faecium γ-CA (Efγ-CA); read-out: Ki Efγ-CA): 6.28; pKi (E. faecium α-CA (Efα-CA); read-out: Ki Efα-CA): 6.75

Row | Compound | pKi (E. faecium γ-CA (Efγ-CA); [3]) | pKi (E. faecium α-CA (Efα-CA); [4]) | pKi (E. faecium γ-CA (Efγ-CA); [1]) | pKi (E. faecium α-CA (Efα-CA); [2]) | pKi (human CA I (hCAI)) | pKi (human CA II (hCAII)) | other results
29 | NS(=O)(=O)c1nnc(NC(=O)CC2CCCC2)s1 [Cmpd 17] | 6.63 | 7.66 | – | – | 7.06 | 7.71 | fold reduced potency against Efα-CA (E. faecium α-CA (Efα-CA); compared to matched molecular paired analog 10): about 2 fold
30 | CC(=O)Nc1ncc(S(N)(=O)=O)s1 [Cmpd 29] | 5.95 | 6.43 | – | – | 6.33 | 7.01 | fold reduction in binding affinity against Efγ-CA (E. faecium γ-CA (Efγ-CA); compared to AZM): 3.5 fold; fold reduction in binding affinity against Efα-CA (E. faecium α-CA (Efα-CA); compared to AZM): 6 fold and 7 fold
